Measured values reported in ChEMBL document CHEMBL3616383, “Discovery of novel 5,6,7,8-tetrahydro[1,2,4]triazolo[4,3-a]pyridine derivatives as γ-secretase modulators” (Bioorg Med Chem Lett, 2015).
pIC50: −log10 of the molar value.

Key:
[1] = Inhibition of gamma-secretase in rat primary neuronal cells assessed as reduction in amyloid beta (1 to 42) production; assay type: cell-based; details: Primary neuron
[2] = Lipophilicity, log D of the compound at pH 7.4 by reversed phase chromatography; assay type: physicochemical; details: buffer
[3] = Drug level in C57BL/6J mouse cortex at 10 mg/kg, po after 3 hrs; assay type: ADME, organism-based; details: read-out: Drug uptake
Mus musculus [4] = experiment: Reduction in amyloid beta (1 to 42) levels in C57BL/6J mouse plasma at 10 mg/kg, po after 3 hrs; assay type: functional
Mus musculus [5] = experiment: Reduction in amyloid beta (1 to 40) levels in C57BL/6J mouse brain at 10 mg/kg, po after 3 hrs; assay type: functional
Mus musculus [6] = experiment: Reduction in amyloid beta (1 to 42) levels in C57BL/6J mouse brain at 10 mg/kg, po after 3 hrs; assay type: functional
Mus musculus [7] = experiment: Reduction in amyloid beta (1 to 40) levels in C57BL/6J mouse plasma at 10 mg/kg, po after 3 hrs; assay type: functional
[8] = Inhibition of gamma-secretase-mediated Notch processing in rat primary neuronal cells; assay type: cell-based; details: Primary neuron
[9] = Inhibition of gamma-secretase in rat primary neuronal cells assessed as reduction in amyloid beta (1 to 40) production; assay type: cell-based; details: Primary neuron
[10] = Drug level in C57BL/6J mouse plasma at 10 mg/kg, po after 3 hrs; assay type: ADME, organism-based

| pIC50 [1] | chromatographic logD [2] | Compound | also measured |
| --- | --- | --- | --- |
| 5.70 | 4.1 | COc1cc(-c2nnc(Cc3ccc(Cl)c(Cl)c3)[nH]2)ccc1-c1cnc(C)o1 | – |
| 6.07 | 4.4 | COc1cc(-c2nc3n(n2)CCCC3c2ccc(Cl)c(Cl)c2)ccc1-c1cnc(C)o1 (stereo not drawn) | – |
| 6.68 | 3.2 | COc1cc(-c2nnc3n2CCCC3c2ccc(Cl)c(Cl)c2)ccc1-c1cnc(C)o1 (stereo not drawn) | – |
| 6.66 | 3.5 | COc1cc(-c2nnc3n2CCCCC3c2ccc(Cl)c(Cl)c2)ccc1-c1cnc(C)o1 (stereo not drawn) | – |
| 6.20 | 3.3 | COc1cc(-c2nnc3n2CCC3c2ccc(Cl)c(Cl)c2)ccc1-c1cnc(C)o1 (stereo not drawn) | – |
| 6.22 | 3.6 | COc1cc(-c2nnc3n2CCC=C3c2ccc(Cl)c(Cl)c2)ccc1-c1cnc(C)o1 | – |
| 6.24 | 2.8 | COc1cc(-c2nnc3n2CCCC3c2ccc(Cl)cc2)ccc1-c1cnc(C)o1 (stereo not drawn) | – |
| 6.43 | 2.8 | COc1cc(-c2nnc3n2CCCC3c2cccc(C(F)(F)F)c2)ccc1-c1cnc(C)o1 (stereo not drawn) | – |
| 7.22 | 3.5 | COc1cc(-c2nnc3n2CCC[C@@H]3c2ccc(Cl)cc2C(F)(F)F)ccc1-c1cnc(C)o1 | concentration at 3 h [3]: 2330 ng/g; % of vehicle at 10 mg/kg (Mus musculus [4]): 31%; % of vehicle at 10 mg/kg (Mus musculus [5]): 75%; % of vehicle at 10 mg/kg (Mus musculus [6]): 50%; % of vehicle at 10 mg/kg (Mus musculus [7]): 63%; pIC50 [8]: < 5.00; pIC50 [9]: 6.31; concentration at 3 h [10]: 6450 ng/mL |

Further lines, the compound ahead of its results:

| Compound | pIC50 [1] | chromatographic logD [2] | also measured |
| --- | --- | --- | --- |
| COc1cc(-c2nnn3c2CCCC3c2ccc(Cl)c(Cl)c2)ccc1-c1cnc(C)o1 (stereo not drawn) | 6.68 | 4.2 | – |
| COc1cc(-c2nnc3n2CCOC3c2ccc(Cl)c(Cl)c2)ccc1-c1cnc(C)o1 (stereo not drawn) | 6.28 | 3.1 | – |
| COc1cc(-c2nnc3n2CCCC3c2ccc(C(F)(F)F)cc2)ccc1-c1cnc(C)o1 (stereo not drawn) | 6.29 | 2.9 | – |
| COc1cc(-c2nnc3n2CCCC3c2ccc(F)cc2)ccc1-c1cnc(C)o1 (stereo not drawn) | 5.82 | 2.4 | – |
| COc1ccc(C2CCCn3c(-c4ccc(-c5cnc(C)o5)c(OC)c4)nnc32)cc1 (stereo not drawn) | 5.72 | 2.4 | – |
| COc1cc(-c2nnc3n2CCCC3c2ccc(N3CCOCC3)cc2)ccc1-c1cnc(C)o1 (stereo not drawn) | 5.64 | 2.3 | – |
| COc1cc(-c2nnc3n2CCCC3c2ccccc2C(F)(F)F)ccc1-c1cnc(C)o1 (stereo not drawn) | 6.42 | 3 | – |
| COc1cc(-c2nnc3n2CCCC3c2ccc(Cl)c(C(F)(F)F)c2)ccc1-c1cnc(C)o1 (stereo not drawn) | 6.66 | 3.2 | – |
| COc1cc(-c2nnc3n2CCCC3c2cc(C(F)(F)F)ccc2C(F)(F)F)ccc1-c1cnc(C)o1 (stereo not drawn) | 6.52 | 3.3 | – |
| COc1cc(-c2nnc3n2CCCC3c2ccc(Cl)cc2C(F)(F)F)ccc1-c1cnc(C)o1 (stereo not drawn) | 7.08 | 3.5 | – |
| COc1cc(-c2nnc3n2CCC[C@H]3c2ccc(Cl)cc2C(F)(F)F)ccc1-c1cnc(C)o1 | 6.08 | 3.5 | – |
